Key:
[1] = biological target: T1, recombinant human Meningioma Expressed Antigen 5 (MGEA5), also referred to as O-GlcNAcase (OGA) (Homo sapiens, UniProt O60502); assay: OGA biochemical assay (inhibition of FM-GlcNAc hydrolysis, fluorescence); details: for IC50: Enzymatic hOGA; for Emax: read-out: Enzymatic Emax (%)
T1 construct: Full length OGA enzyme was purchased at OriGene (cat #TP322411); purchased OriGene TP322411
T1 sequence (O60502 1-916): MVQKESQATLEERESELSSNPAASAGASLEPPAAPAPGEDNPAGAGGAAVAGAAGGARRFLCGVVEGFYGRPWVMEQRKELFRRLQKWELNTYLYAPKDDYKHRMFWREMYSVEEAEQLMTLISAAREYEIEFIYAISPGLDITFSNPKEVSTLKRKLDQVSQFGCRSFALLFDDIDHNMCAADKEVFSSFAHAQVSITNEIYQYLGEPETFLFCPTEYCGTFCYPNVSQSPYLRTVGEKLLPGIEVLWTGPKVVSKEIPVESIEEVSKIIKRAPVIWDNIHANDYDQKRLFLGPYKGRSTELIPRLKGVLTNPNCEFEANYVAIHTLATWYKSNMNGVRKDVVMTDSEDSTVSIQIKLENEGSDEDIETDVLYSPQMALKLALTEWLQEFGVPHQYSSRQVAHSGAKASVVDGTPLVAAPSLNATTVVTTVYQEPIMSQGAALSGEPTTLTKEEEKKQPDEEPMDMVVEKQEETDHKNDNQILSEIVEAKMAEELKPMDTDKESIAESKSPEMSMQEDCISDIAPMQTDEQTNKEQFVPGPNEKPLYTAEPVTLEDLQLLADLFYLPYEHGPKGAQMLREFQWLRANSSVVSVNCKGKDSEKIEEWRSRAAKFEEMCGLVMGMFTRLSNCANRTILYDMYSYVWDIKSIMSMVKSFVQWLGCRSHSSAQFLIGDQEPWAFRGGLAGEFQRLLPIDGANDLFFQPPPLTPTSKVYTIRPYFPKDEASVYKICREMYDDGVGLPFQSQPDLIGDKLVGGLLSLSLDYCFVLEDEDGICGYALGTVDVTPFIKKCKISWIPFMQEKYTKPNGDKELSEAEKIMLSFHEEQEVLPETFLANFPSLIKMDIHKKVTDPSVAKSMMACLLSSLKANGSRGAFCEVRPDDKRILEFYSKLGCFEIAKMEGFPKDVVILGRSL
Procedure, shortened: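 Full-length recombinant OGA at 2 nM with 100 uM FM-GlcNAc in 200 mM citrate/phosphate buffer, 0.005% Tween-20. IC50 and Hill coefficient from curve fit between no-inhibitor and saturating standard-inhibitor controls.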

hOGA = biological target: T2, hOGA (Homo sapiens, UniProt O60502); assay: OGA cellular assay (ICC detection of O-GlcNAcylated proteins in HEK293 cells inducible for P301L mutant human Tau); assay type: cell-based; set-up: Emax: dose or concentration left out as unconfirmed; details: for EC50: Cellular hOGA; for Emax: HEK293, read-out: Cellular Emax (%)
T2 construct: endogenous in cells; host or cells: HEK293 cells inducible for P301L mutant human Tau (isoform 2N4R)
T2 sequence (O60502 1-916): T1 sequence (O60502 1-916)
Procedure, shortened: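 HEK293 cells inducible for P301L Tau (2N4R), seeded in low-glucose medium, treated with compound for 6 h at 0.2% DMSO. After PFA fixation, O-GlcNAcylated proteins stained with CTD110.6 and imaged (488 nm intensity, 9 fields/well); Hoechst nuclei count for toxicity. IC50 by non-linear regression, Thiamet-G 200 μM as maximum.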

[2] = pIC50, Table 5, full length OGA 2 nM, FM-GlcNAc 100 uM, 6 h at room temperature
[3] = pEC50, Table 5, HEK293 P301L Tau cells, 6 hours incubation, O-GlcNAcylation readout
[4] = Table 5, full length OGA 2 nM, FM-GlcNAc 100 uM, 6 h at room temperature
[5] = Table 5, HEK293 P301L Tau cells, 6 hours incubation, O-GlcNAcylation readout
[6] = second table, averaged values over several runs, obtained after recalibration of the equipment
[7] = pIC50, second table, averaged values over several runs, obtained after recalibration of the equipment
[8] = pEC50, second table, averaged values over several runs, obtained after recalibration of the equipment

CCCCn1ncc2c(Nc3c(Cl)cccc3Cl)nccc21 [Compound 66, 1-Butyl-N-(2,6-dichlorophenyl)pyrazolo[4,3-c]pyridin-4-amine]
IC50 [1, 2]: 85.1 nM
Emax [1]: 104%
melting point: 144.7 °C
EC50 (hOGA; [3]): > 1000 nM
Emax (hOGA): 45%

Cc1cc(C(F)(F)F)cc(C)c1Nc1nccc2c1ncn2-c1ncc(F)cn1 [Compound 69]
Enzymatic hOGA; pIC50 [1, 4]: 6.14
Emax [1]: 80%
melting point: 198.2 °C
Emax (hOGA): 6%
Cellular hOGA; pEC50 (hOGA; [5]): <6
Cellular hOGA; pEC50 (hOGA; [6]): 6.14

Cc1cc(C(F)(F)F)cc(C)c1Nc1nccc2c1ncn2CCC(=O)N(C)C [Compound 70]
Enzymatic hOGA; pIC50 [1, 4]: <5
Emax [1]: 7%
melting point: 194.9 °C
Emax (hOGA): 7%
Cellular hOGA; pEC50 (hOGA; [5]): <6
Cellular hOGA; pEC50 (hOGA; [6]): <6

Cc1cc(C(F)(F)F)cc(C)c1Nc1nccc2c1ncn2C(C)(C)C(=O)N(C)C [Compound 71]
Enzymatic hOGA; pIC50 [1, 4]: <5
Emax [1]: 6%
melting point: 260.1 °C
Emax (hOGA): 27%
Cellular hOGA; pEC50 (hOGA; [5]): <6
Cellular hOGA; pEC50 (hOGA; [6]): <6

Cc1cc(C(F)(F)F)cc(C)c1Nc1nccc2c1ncn2C(C)C(=O)N(C)C (stereo not shown) [Compound 72]
Enzymatic hOGA; pIC50 [1, 4]: 6.26
Emax [1]: 92%
melting point: 199.9 °C
Emax (hOGA): 2%
Cellular hOGA; pEC50 (hOGA; [5]): <6
Cellular hOGA; pEC50 (hOGA; [6]): <6

Cc1cc(C(F)(F)F)cc(C)c1Nc1nccc2c1ncn2C1CCCCO1 (stereo not shown) [Compound 73]
Enzymatic hOGA; pIC50 [1, 4]: 6.77
Emax [1]: 100%
Enzymatic hOGA; pIC50 [1, 6]: 6.91
melting point: 169.8 °C
Emax (hOGA): 42%
Cellular hOGA; pEC50 (hOGA; [5]): <6
Cellular hOGA; pEC50 (hOGA; [6]): 6.42

COCCn1cnc2c(Nc3c(C)cc(C(F)(F)F)cc3C)nccc21 [Compound 74]
Enzymatic hOGA; pIC50 [1, 4]: 5.64
Emax [1]: 83%
melting point: 161.5 °C
Emax (hOGA): 6%
Cellular hOGA; pEC50 (hOGA; [5]): <6
Cellular hOGA; pEC50 (hOGA; [6]): <6

Cc1cc(C(F)(F)F)cc(C)c1Nc1ncc(C2CC2)c2c1ncn2CC(=O)N(C)C [Compound 75]
Enzymatic hOGA; pIC50 [1, 4]: 6.28
Emax [1]: 97%
melting point: 246.7 °C
Emax (hOGA): 22%
Cellular hOGA; pEC50 (hOGA; [5]): <6

Cc1cc(C(F)(F)F)cc(C)c1Nc1nccc2c1ncn2CC(=O)N(C)CC(F)(F)F [Compound 77]
Enzymatic hOGA; pIC50 [1, 4]: 7.23
Emax [1]: 103%
melting point: 228.3 °C
Emax (hOGA): 67%
Cellular hOGA; pEC50 (hOGA; [5]): 6.37

Cc1cc(F)c(F)c(C)c1Nc1nccc2c1ncn2CC(=O)N(C)C [Compound 78]
IC50 [1, 7]: 21.4 nM
melting point: 198.1 °C
EC50 (hOGA; [8]): 427 nM

Cc1cc(F)c(F)c(C)c1Nc1nccc2c1ncn2CC(=O)N1CCC1 [Compound 79]
IC50 [1, 7]: 251 nM
melting point: 214.8 °C
EC50 (hOGA; [8]): > 1000 nM

Cc1cc(Cn2cnc3c(Nc4c(C)cc(C(F)(F)F)cc4C)nccc32)no1 [Compound 80]
IC50 [1, 2]: 8.91 nM
Emax [1]: 104%
melting point: 164.7 °C
Emax (hOGA): 94%

Cc1cc(C(F)(F)F)cc(C)c1Nc1ncc(C)c2c1cnn2CC(=O)N(C)C [Compound 81, 2-(4-((2,6-Dimethyl-4-(trifluoromethyl)phenyl)amino)-7-methyl-1H-pyrazolo[4,3-c]pyridin-1-yl)-N,N-dimethylacetamide]
IC50 [1, 2]: 69.2 nM
Emax [1]: 100%
melting point: 211.6 °C
EC50 (hOGA; [3]): 537 nM
EC50 (hOGA; [8]): 151 nM
Emax (hOGA): 66%

Cc1cc(C(F)(F)F)cc(C)c1Nc1nccc2c1ncn2-c1cn(C)cn1 [Compound 82, N-(2,6-dimethyl-4-(trifluoromethyl)phenyl)-1-(1-methyl-1H-imidazol-4-yl)-1H-imidazo[4,5-c]pyridin-4-amine]
IC50 [1, 2]: 174 nM
IC50 [1, 7]: 170 nM
Emax [1]: 97%
melting point: 184.8 °C
EC50 (hOGA; [8]): > 1000 nM

Source: patent publication US20230099293A1, “OGA INHIBITOR COMPOUNDS” (priority 2019, published 2023)
